Data from ChEMBL document CHEMBL3627672, “Structure-activity relationship study of syringolin A as a potential anticancer agent” (Bioorg Med Chem Lett, 2015).

What was measured:
[1] = target: T1, Proteasome Macropain subunit MB1 (Homo sapiens, UniProt P28074); assay: Inhibition of proteasome beta-5 (unknown origin)
T1 sequence (P28074 whole entry): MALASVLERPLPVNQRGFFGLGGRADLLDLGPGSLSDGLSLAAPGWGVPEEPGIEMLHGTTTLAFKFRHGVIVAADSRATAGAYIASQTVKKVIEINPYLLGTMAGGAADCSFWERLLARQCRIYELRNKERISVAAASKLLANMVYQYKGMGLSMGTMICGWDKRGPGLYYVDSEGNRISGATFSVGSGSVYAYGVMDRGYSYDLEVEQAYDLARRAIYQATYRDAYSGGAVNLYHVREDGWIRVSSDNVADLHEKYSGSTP

[2] = Cytotoxicity against human MM1S cells; format: functional, cell-based; conditions: MM1.S
[3] = tested on: A-431; assay: Antiproliferative activity against human A431 cells after 72 hrs by oxyluciferin luminescence assay; conditions: A-431, 72 h
[4] = tested on: HCT-116; assay: Antiproliferative activity against human HCT116 cells after 72 hrs by oxyluciferin luminescence assay; conditions: HCT-116, 72 h
[5] = tested on: RKO; assay: Antiproliferative activity against human RKO cells after 72 hrs by oxyluciferin luminescence assay
[6] = Antiproliferative activity against human TOV21G cells after 72 hrs by oxyluciferin luminescence assay
[7] = tested on: CCRF-CEM; assay: Antiproliferative activity against human CCRF-CEM cells after 72 hrs by oxyluciferin luminescence assay
[8] = Antiproliferative activity against human RPMI8266 cells after 72 hrs by oxyluciferin luminescence assay; conditions: RPMI8266, 72 h
[9] = Cytotoxicity against human RPMI8266 cells

Compound | Ki [1] [nM] | IC50 [2] [nM] | IC50 [3] [nM] | IC50 [4] [nM] | IC50 [5] [nM] | IC50 [6] [nM] | IC50 [7] [nM] | IC50 [8] [nM] | IC50 [9] [nM]
CC(C)[C@H](NC(=O)N[C@H](C(=O)N[C@H]1/C=C/CCNC(=O)/C=C/[C@H](C(C)C)NC1=O)C(C)C)C(=O)O | 843 | 8500 | – | – | – | – | – | – | –
CCCCCCCCCC(=O)N1CCC[C@]1(Cc1ccccc1)C(=O)N[C@H]1/C=C/CCNC(=O)/C=C/[C@H](C(C)C)NC1=O | – | – | > 1000 | > 1000 | > 1000 | > 1000 | > 1000 | > 1000 | –
CCCCCCCCCC(=O)N[C@H](CC(=O)N[C@H]1/C=C/CCNC(=O)/C=C/[C@H](C(C)C)NC1=O)Cc1ccccc1 | – | – | 191 | 434 | 244 | 212 | 221 | 255 | –
CCCCCCCCCC(=O)N[C@@H](Cc1ccccc1)C(=O)N[C@H]1/C=C/CCNC(=O)/C=C/[C@H](C(C)C)NC1=O | – | – | 14.1 | 12.6 | 11.8 | 12.3 | 4.3 | 9 | 2.2
CC(C)C[C@H](NC(=O)[C@H](Cc1ccccc1)NC(=O)c1cnccn1)B(O)O [BORTEZOMIB] | – | – | 28.2 | 27 | 20.8 | 16.7 | 11 | 14.4 | –
CC(C)C[C@H](NC(=O)[C@H](CCc1ccccc1)NC(=O)CN1CCOCC1)C(=O)N[C@@H](Cc1ccccc1)C(=O)N[C@@H](CC(C)C)C(=O)[C@@]1(C)CO1 [CARFILZOMIB] | – | – | 23.8 | 19.3 | 27.1 | 23.8 | 6.1 | 13.9 | –
